{"source": "ChEMBL document CHEMBL3046319", "about": "“PCR-RFLP detection of the E198A mutation conferring resistance to benzimidazoles in field isolates of Monilinia laxa from Greece” (Crop Prot, 2012)", "key": {"Monilinia laxa [1]": {"tested_on": "Monilinia laxa", "test": "Fungicidal activity against Monilinia laxa isolate MLK9 assessed as reduction in mycelial growth rate at 1 to 10 ug/ml at 31 degC after 5 days", "format": "functional, organism-based"}, "Monilinia laxa [2]": {"tested_on": "Monilinia laxa", "test": "Fungicidal activity against Monilinia laxa isolate MLK8 assessed as reduction in mycelial growth rate at 1 to 10 ug/ml at 31 degC after 5 days", "format": "functional, organism-based"}, "Monilinia laxa [3]": {"tested_on": "Monilinia laxa", "test": "Fungicidal activity against Monilinia laxa isolate MLG3 assessed as reduction in mycelial growth rate at 1 to 10 ug/ml at 31 degC after 5 days", "format": "functional, organism-based"}, "Monilinia laxa [4]": {"tested_on": "Monilinia laxa", "test": "Fungicidal activity against Monilinia laxa isolate MLK1 assessed as mean number of conidia produced in the colony at 25 degC after 12 days by haemocytometer", "format": "functional"}, "Monilinia laxa [5]": {"tested_on": "Monilinia laxa", "test": "Fungicidal activity against Monilinia laxa isolate MLX1 assessed as mean mycelial colony diameter at 25 degC after 4 days", "format": "functional"}, "Monilinia laxa [6]": {"tested_on": "Monilinia laxa", "test": "Fungicidal activity against Monilinia laxa isolate MLK1 assessed as mean mycelial colony diameter at 25 degC after 4 days", "format": "functional"}, "Monilinia laxa [7]": {"tested_on": "Monilinia laxa", "test": "Fungicidal activity against Monilinia laxa isolate MLA1 assessed as mean mycelial colony diameter at 25 degC after 4 days", "format": "functional"}, "Monilinia laxa [8]": {"tested_on": "Monilinia laxa", "test": "Fungicidal activity against Monilinia laxa isolate MLK1 assessed as mycelial growth at 1 ug/ml at 25 degC after 4 days", "format": "functional"}, "Monilinia laxa [9]": {"tested_on": "Monilinia laxa", "test": "Fungicidal activity against Monilinia laxa isolate MLC2 assessed as mycelial growth at 1 ug/ml at 25 degC after 4 days", "format": "functional"}, "Monilinia laxa [10]": {"tested_on": "Monilinia laxa", "test": "Fungicidal activity against Monilinia laxa isolate MLAl8 assessed as reduction in mycelial growth rate at 1 to 10 ug/ml at 31 degC after 5 days", "format": "functional, organism-based"}, "Monilinia laxa [11]": {"tested_on": "Monilinia laxa", "test": "Fungicidal activity against Monilinia laxa isolate MLNS1 assessed as reduction in mycelial growth rate at 1 to 10 ug/ml at 28 degC after 8 days", "format": "functional, organism-based"}, "Monilinia laxa [12]": {"tested_on": "Monilinia laxa", "test": "Fungicidal activity against Monilinia laxa isolate MLX5 assessed as reduction in mycelial growth rate at 1 to 10 ug/ml at 28 degC after 8 days", "format": "functional, organism-based"}, "Monilinia laxa [13]": {"tested_on": "Monilinia laxa", "test": "Fungicidal activity against Monilinia laxa isolate MLX1 assessed as reduction in mycelial growth rate at 1 to 10 ug/ml at 28 degC after 8 days", "format": "functional, organism-based"}, "Monilinia laxa [14]": {"tested_on": "Monilinia laxa", "test": "Fungicidal activity against Monilinia laxa isolate MLP7 assessed as reduction in mycelial growth rate at 1 to 10 ug/ml at 28 degC after 8 days", "format": "functional, organism-based"}, "Monilinia laxa [15]": {"tested_on": "Monilinia laxa", "test": "Fungicidal activity against Monilinia laxa isolate MLK6 assessed as reduction in mycelial growth rate at 1 to 10 ug/ml at 28 degC after 8 days", "format": "functional, organism-based"}, "Monilinia laxa [16]": {"tested_on": "Monilinia laxa", "test": "Fungicidal activity against Monilinia laxa isolate MLK2 assessed as reduction in mycelial growth rate at 1 to 10 ug/ml at 28 degC after 8 days", "format": "functional, organism-based"}, "Monilinia laxa [17]": {"tested_on": "Monilinia laxa", "test": "Fungicidal activity against Monilinia laxa isolate MLK1 assessed as reduction in mycelial growth rate at 1 to 10 ug/ml at 28 degC after 8 days", "format": "functional, organism-based"}, "Monilinia laxa [18]": {"tested_on": "Monilinia laxa", "test": "Fungicidal activity against Monilinia laxa isolate MLC3 assessed as reduction in mycelial growth rate at 1 to 10 ug/ml at 28 degC after 8 days", "format": "functional, organism-based"}, "Monilinia laxa [19]": {"tested_on": "Monilinia laxa", "test": "Fungicidal activity against Monilinia laxa isolate MLC4 assessed as reduction in mycelial growth rate at 25 degC after 4 days", "format": "functional, organism-based", "conditions": "isolate MLC4, 96 h"}, "Monilinia laxa [20]": {"tested_on": "Monilinia laxa", "test": "Fungicidal activity against Monilinia laxa isolate MLC3 assessed as reduction in mycelial growth rate at 25 degC after 4 days", "format": "functional, organism-based", "conditions": "isolate MLC3, 96 h"}, "Monilinia laxa [21]": {"tested_on": "Monilinia laxa", "test": "Fungicidal activity against Monilinia laxa isolate MLBO8 assessed as reduction in mycelial growth rate at 25 degC after 4 days", "format": "functional, organism-based", "conditions": "isolate MLBO8, 96 h"}, "Monilinia laxa [22]": {"tested_on": "Monilinia laxa", "test": "Fungicidal activity against Monilinia laxa isolate MLBO4 assessed as reduction in mycelial growth rate at 25 degC after 4 days", "format": "functional, organism-based", "conditions": "isolate MLBO4, 96 h"}, "Monilinia laxa [23]": {"tested_on": "Monilinia laxa", "test": "Fungicidal activity against Monilinia laxa isolate KX5 assessed as reduction in mycelial growth rate at 1 to 10 ug/ml at 25 to 28 degC", "format": "functional, organism-based"}, "Monilinia laxa [24]": {"tested_on": "Monilinia laxa", "test": "Fungicidal activity against Monilinia laxa isolate MLK1 assessed as reduction in mycelial growth rate at 1 to 10 ug/ml at 25 to 28 degC", "format": "functional, organism-based"}, "Monilinia laxa [25]": {"tested_on": "Monilinia laxa", "test": "Fungicidal activity against Monilinia laxa isolate MLC3 assessed as reduction in mycelial growth rate at 1 to 10 ug/ml at 25 to 28 degC", "format": "functional, organism-based"}, "Monilinia laxa [26]": {"tested_on": "Monilinia laxa", "test": "Fungicidal activity against Monilinia laxa isolate MLB1 assessed as reduction in mycelial growth rate at 1 to 10 ug/ml at 25 to 28 degC", "format": "functional, organism-based"}, "Monilinia laxa [27]": {"tested_on": "Monilinia laxa", "test": "Fungicidal activity against Monilinia laxa isolate KX3 assessed as reduction in mycelial growth rate at 1 to 10 ug/ml at 31 degC after 5 days", "format": "functional, organism-based"}, "Monilinia laxa [28]": {"tested_on": "Monilinia laxa", "test": "Fungicidal activity against Monilinia laxa isolate MLP2 assessed as mycelial growth at 1 ug/ml at 25 degC after 4 days", "format": "functional"}, "Monilinia laxa [29]": {"tested_on": "Monilinia laxa", "test": "Fungicidal activity against Monilinia laxa isolate MLP4 assessed as reduction in mycelial growth rate at 1 to 10 ug/ml at 31 degC after 5 days", "format": "functional, organism-based"}, "Monilinia laxa [30]": {"tested_on": "Monilinia laxa", "test": "Fungicidal activity against Monilinia laxa isolate MLP4 assessed as virulence in prune fruits assessed as virulence treated 10 min prior to mycelial inoculation at 24 degC after 10 days relative to isolate MLX1by pathogenicity bioassay", "format": "functional"}, "Monilinia laxa [31]": {"tested_on": "Monilinia laxa", "test": "Fungicidal activity against Monilinia laxa isolate MLG1 assessed as mean mycelial colony diameter at 25 degC after 4 days", "format": "functional"}, "Monilinia laxa [32]": {"tested_on": "Monilinia laxa", "test": "Fungicidal activity against Monilinia laxa isolate KX4 assessed as reduction in mycelial growth rate at 25 degC after 4 days", "format": "functional, organism-based", "conditions": "isolate KX4, 96 h"}, "Monilinia laxa [33]": {"tested_on": "Monilinia laxa", "test": "Fungicidal activity against Monilinia laxa isolate MLX5 assessed as virulence in prune fruits assessed as virulence treated 10 min prior to mycelial inoculation at 24 degC after 10 days relative to isolate MLX1by pathogenicity bioassay", "format": "functional"}, "Monilinia laxa [34]": {"tested_on": "Monilinia laxa", "test": "Fungicidal activity against Monilinia laxa isolate MLB1 assessed as reduction in mycelial growth rate at 1 to 10 ug/ml at 31 degC after 5 days", "format": "functional, organism-based"}, "Monilinia laxa [35]": {"tested_on": "Monilinia laxa", "test": "Fungicidal activity against Monilinia laxa isolate MLX2 assessed as reduction in mycelial growth rate at 1 to 10 ug/ml at 31 degC after 5 days", "format": "functional, organism-based"}, "Monilinia laxa [36]": {"tested_on": "Monilinia laxa", "test": "Fungicidal activity against Monilinia laxa isolate KX2 assessed as reduction in mycelial growth rate at 25 degC after 4 days", "format": "functional, organism-based", "conditions": "isolate KX2, 96 h"}, "Monilinia laxa [37]": {"tested_on": "Monilinia laxa", "test": "Fungicidal activity against Monilinia laxa isolate KX1 assessed as reduction in mycelial growth rate at 25 degC after 4 days", "format": "functional, organism-based", "conditions": "isolate KX1, 96 h"}, "Monilinia laxa [38]": {"tested_on": "Monilinia laxa", "test": "Fungicidal activity against Monilinia laxa isolate MLNS2 assessed as reduction in mycelial growth rate at 25 degC after 4 days", "format": "functional, organism-based", "conditions": "isolate MLNS2, 96 h"}, "Monilinia laxa [39]": {"tested_on": "Monilinia laxa", "test": "Fungicidal activity against Monilinia laxa isolate MLNS1 assessed as reduction in mycelial growth rate at 25 degC after 4 days", "format": "functional, organism-based", "conditions": "isolate MLNS1, 96 h"}, "Monilinia laxa [40]": {"tested_on": "Monilinia laxa", "test": "Fungicidal activity against Monilinia laxa isolate MLX2 assessed as reduction in mycelial growth rate at 25 degC after 4 days", "format": "functional, organism-based", "conditions": "isolate MLX2, 96 h"}, "Monilinia laxa [41]": {"tested_on": "Monilinia laxa", "test": "Fungicidal activity against Monilinia laxa isolate MLP4 assessed as reduction in mycelial growth rate at 25 degC after 4 days", "format": "functional, organism-based", "conditions": "isolate MLP4, 96 h"}, "Monilinia laxa [42]": {"tested_on": "Monilinia laxa", "test": "Fungicidal activity against Monilinia laxa isolate MLK6 assessed as reduction in mycelial growth rate at 25 degC after 4 days", "format": "functional, organism-based", "conditions": "isolate MLK6, 96 h"}}, "note": "Activity calls are given as the source filed them. The rule behind the calls is not given here.", "data": [{"smiles": "COC(=O)Nc1nc2ccccc2[nH]1", "note": "[CARBENDAZIM]", "values": [{"measurement": "inhibition", "setting": "Monilinia laxa [1]", "value": "Active"}, {"measurement": "inhibition", "setting": "Monilinia laxa [2]", "value": "Active"}, {"measurement": "inhibition", "setting": "Monilinia laxa [3]", "value": "Active"}, {"measurement": "Activity", "setting": "Monilinia laxa [4]", "value": "6.55 /cm2"}, {"measurement": "Activity", "setting": "Monilinia laxa [5]", "value": 31.25, "unit": "mm"}, {"measurement": "Activity", "setting": "Monilinia laxa [6]", "value": 30.55, "unit": "mm"}, {"measurement": "Activity", "setting": "Monilinia laxa [7]", "value": 27.1, "unit": "mm"}, {"measurement": "Activity", "setting": "Monilinia laxa [8]", "value": 99.9, "unit": "%"}, {"measurement": "Activity", "setting": "Monilinia laxa [9]", "value": 98.28, "unit": "%"}, {"measurement": "inhibition", "setting": "Monilinia laxa [10]", "value": "Active"}, {"measurement": "inhibition", "setting": "Monilinia laxa [11]", "value": "inactive"}, {"measurement": "inhibition", "setting": "Monilinia laxa [12]", "value": "inactive"}, {"measurement": "inhibition", "setting": "Monilinia laxa [13]", "value": "inactive"}, {"measurement": "inhibition", "setting": "Monilinia laxa [14]", "value": "inactive"}, {"measurement": "inhibition", "setting": "Monilinia laxa [15]", "value": "inactive"}, {"measurement": "inhibition", "setting": "Monilinia laxa [16]", "value": "inactive"}, {"measurement": "inhibition", "setting": "Monilinia laxa [17]", "value": "inactive"}, {"measurement": "inhibition", "setting": "Monilinia laxa [18]", "value": "inactive"}, {"measurement": "EC50", "setting": "Monilinia laxa [19]", "value": 0.09, "unit": "µg/mL"}, {"measurement": "EC50", "setting": "Monilinia laxa [20]", "value": "> 50", "unit": "µg/mL"}, {"measurement": "EC50", "setting": "Monilinia laxa [21]", "value": 0.06, "unit": "µg/mL"}, {"measurement": "EC50", "setting": "Monilinia laxa [22]", "value": 0.05, "unit": "µg/mL"}, {"measurement": "inhibition", "setting": "Monilinia laxa [23]", "value": "inactive"}, {"measurement": "inhibition", "setting": "Monilinia laxa [24]", "value": "inactive"}, {"measurement": "inhibition", "setting": "Monilinia laxa [25]", "value": "inactive"}, {"measurement": "inhibition", "setting": "Monilinia laxa [26]", "value": "inactive"}, {"measurement": "inhibition", "setting": "Monilinia laxa [27]", "value": "Active"}, {"measurement": "Activity", "setting": "Monilinia laxa [28]", "value": 0, "unit": "%"}, {"measurement": "inhibition", "setting": "Monilinia laxa [29]", "value": "Active"}, {"measurement": "Activity", "setting": "Monilinia laxa [30]", "value": 100, "unit": "%"}, {"measurement": "Activity", "setting": "Monilinia laxa [31]", "value": 25.55, "unit": "mm"}, {"measurement": "EC50", "setting": "Monilinia laxa [32]", "value": "> 50", "unit": "µg/mL"}, {"measurement": "Activity", "setting": "Monilinia laxa [33]", "value": 96.29, "unit": "%"}, {"measurement": "inhibition", "setting": "Monilinia laxa [34]", "value": "Active"}, {"measurement": "inhibition", "setting": "Monilinia laxa [35]", "value": "Active"}, {"measurement": "EC50", "setting": "Monilinia laxa [36]", "value": 0.08, "unit": "µg/mL"}, {"measurement": "EC50", "setting": "Monilinia laxa [37]", "value": 0.06, "unit": "µg/mL"}, {"measurement": "EC50", "setting": "Monilinia laxa [38]", "value": "> 50", "unit": "µg/mL"}, {"measurement": "EC50", "setting": "Monilinia laxa [39]", "value": "> 50", "unit": "µg/mL"}, {"measurement": "EC50", "setting": "Monilinia laxa [40]", "value": 0.12, "unit": "µg/mL"}, {"measurement": "EC50", "setting": "Monilinia laxa [41]", "value": "> 50", "unit": "µg/mL"}, {"measurement": "EC50", "setting": "Monilinia laxa [42]", "value": "> 50", "unit": "µg/mL"}]}]}
